Laboratory results published in US12409129B2, “Skin care composition” (BEIERSDORF AG, priority 2019, dated 2025).

Tests used:
C. acnes strain K8 = assay: Minimum inhibitory concentration (MIC) / compatibility of cosmetic excipients; type: cell-based, Cutibacterium acnes; conditions: % w/vol, incubated anaerobically 3 days at 37° C, growth scored visually
Description: (§1) In microbiology, the MIC is the lowest concentration of a chemical which prevents visible growth of bacterium. The resulted MIC value depends both on the microorganism and the test compound. The MIC is determined by preparing concentrations series of the test compound in vitro, incubating the solutions with the separate batches of cultured bacteria, and measuring the results using agar dilution or broth microdilution. For the experiments with C. acnes strains C3 and K8, media comprising yeast extract soy peptone and dextrose were used. The MIC is determined by turbidity.
(§2) A total of 125 cosmetic excipients were tested for their compatibility with C. acnes strains C3 and K8. Hydrophilic compounds were tested in a 96-well plate liquid broth format, poorly soluble compounds were pre-dissolved in DMSO before dilution in liquid broth and hydrophobic or solid compounds were tested in an agar well diffusion test assay. The different dilutions of the test excipients in media were prepared in Falcon tubes and then distributed in a deep well plate using a multistepper. Each well received 1.2 ml and was subsequently inoculated with 120 μl of C. acnes bacteria suspension (strain C3 and K8). From the deep well plate 200 μl were transferred in each well of a clear 96 well replicate plate. The leftover was discarded. The plates were then incubated anaerobically for 3 days at 37° C. Following incubation, the test plates were visually examined and wells were scored for growth or complete growth inhibition to define the minimum inhibitory concentration.
(§3) These excipients are listed in the below table with their compatibility values for C. acnes strains C3 and K8. The compatibility values represent the MIC value of the listed ingredients with the tested C. acnes strains. At this concentration [% w/vol] the tested compound starts interfering with the growth of the tested strains. The compounds can be used in formulations at concentrations below this concentration.

C. acnes strain C3 = assay: as above; type: cell-based, Cutibacterium acnes; conditions: % w/vol, incubated anaerobically 3 days at 37° C, growth scored visually
Description: as §1, §2, §3

| Compound | COMPATABILITY VALUE K8 [%] (MIC value) (C. acnes strain K8) | COMPATABILITY VALUE C3 [%] (MIC value) (C. acnes strain C3) |
| --- | --- | --- |
| CCCCCCC(O)CO (centres unmarked) [caprylyl glycol] | 0.18% | 0.18% |
| O=C(O)CC(O)(CC(=O)O)C(=O)O [citric acid] | 0.08% | 0.33% |
| CCO [ethanol] | 3.75% | 3.75% |
| CC(CO)CO [methylpropanediol] | 4.00% | 4.00% |
| CC(=O)Oc1c(C)c(C)c2c(c1C)CCC(C)(CCC[C@H](C)CCC[C@H](C)CCCC(C)C)O2 (some centres unmarked) [tocopheryl acetate] | 1.00% | 1.00% |
| ethylhexyl cocoate | 10.00% | 10.00% |
| tocopherol | 1.50% | 1.50% |
